Data: ChEMBL document CHEMBL4477199, “Design and synthesis of novel bicalutamide and enzalutamide derivatives as antiproliferative agents for the treatment of prostate cancer” (Eur J Med Chem, 2016)

Assays:
CWR22R [1] = assay: Antiproliferative activity against human 22Rv1 cells after 96 hrs by propidium iodide staining based fluorescence 2D monolayer assay; assay type: functional, cell-based; settings: 22Rv1, 96 h
DU-145 [2] = assay: Antiproliferative activity against human DU145 cells after 96 hrs by propidium iodide staining based fluorescence 2D monolayer assay; assay type: functional, cell-based; settings: DU-145, 96 h
LNCaP [3] = assay: Antiproliferative activity against human LNCAP cells after 96 hrs by propidium iodide staining based fluorescence 2D monolayer assay; assay type: functional, cell-based
VCaP [4] = assay: Antiproliferative activity against human VCaP cells after 96 hrs by propidium iodide staining based fluorescence 2D monolayer assay; assay type: functional, cell-based
LNCaP [5] = assay: Antiproliferative activity against human LNCAP cells assessed as relative inhibition after 96 hrs by propidium iodide staining based fluorescence 2D monolayer assay; assay type: functional, cell-based
DU-145 [6] = assay: Antiproliferative activity against human DU145 cells assessed as relative inhibition after 96 hrs by propidium iodide staining based fluorescence 2D monolayer assay; assay type: functional, cell-based; settings: DU-145, 96 h
CWR22R [7] = assay: Antiproliferative activity against human 22Rv1 cells assessed as relative inhibition after 96 hrs by propidium iodide staining based fluorescence 2D monolayer assay; assay type: functional, cell-based; settings: 22Rv1, 96 h
VCaP [8] = assay: Antiproliferative activity against human VCaP cells assessed as relative inhibition after 96 hrs by propidium iodide staining based fluorescence 2D monolayer assay; assay type: functional, cell-based
HepG2 [9] = assay: Cytotoxicity against human HepG2 cells assessed as reduction in cell viability at 100 uM after 72 hrs by MTT assay relative to control; assay type: functional
in vitro = settings: human
CWR22R [10] = assay: Potency index, ratio of bicalutamide IC50 to compound IC50 for human 22Rv1 cells; assay type: functional
DU-145 [11] = assay: Potency index, ratio of bicalutamide IC50 to compound IC50 for human DU145 cells; assay type: functional
LNCaP [12] = assay: Potency index, ratio of bicalutamide IC50 to compound IC50 for human LNCAP cells; assay type: functional
VCaP [13] = assay: Potency index, ratio of bicalutamide IC50 to compound IC50 for human VCaP cells; assay type: functional
[14] = 96 h
Description: Solubility in RPMI1640 culture medium at <30 uM incubated for 4 days by microscopic analysis

[15] = 33000 µM
Description: Solubility in 100% DMSO at 33 mM at -20 degC

[16] = molecular target: T1, Androgen receptor (Rattus norvegicus) (UniProt P15207); assay: (§1) Antagonist activity at rat androgen receptor fused with DNA-binding domain of GAL4 expressed in AR-UAS-bla GripTite 293 cells assessed as inhibition of R1881-induced receptor activation preincubated for 30 mins followed by R1881 addition measured after 16 to 24 hrs by betalactamase reporter gene assay; assay type: cell-based
T1 sequence (whole entry): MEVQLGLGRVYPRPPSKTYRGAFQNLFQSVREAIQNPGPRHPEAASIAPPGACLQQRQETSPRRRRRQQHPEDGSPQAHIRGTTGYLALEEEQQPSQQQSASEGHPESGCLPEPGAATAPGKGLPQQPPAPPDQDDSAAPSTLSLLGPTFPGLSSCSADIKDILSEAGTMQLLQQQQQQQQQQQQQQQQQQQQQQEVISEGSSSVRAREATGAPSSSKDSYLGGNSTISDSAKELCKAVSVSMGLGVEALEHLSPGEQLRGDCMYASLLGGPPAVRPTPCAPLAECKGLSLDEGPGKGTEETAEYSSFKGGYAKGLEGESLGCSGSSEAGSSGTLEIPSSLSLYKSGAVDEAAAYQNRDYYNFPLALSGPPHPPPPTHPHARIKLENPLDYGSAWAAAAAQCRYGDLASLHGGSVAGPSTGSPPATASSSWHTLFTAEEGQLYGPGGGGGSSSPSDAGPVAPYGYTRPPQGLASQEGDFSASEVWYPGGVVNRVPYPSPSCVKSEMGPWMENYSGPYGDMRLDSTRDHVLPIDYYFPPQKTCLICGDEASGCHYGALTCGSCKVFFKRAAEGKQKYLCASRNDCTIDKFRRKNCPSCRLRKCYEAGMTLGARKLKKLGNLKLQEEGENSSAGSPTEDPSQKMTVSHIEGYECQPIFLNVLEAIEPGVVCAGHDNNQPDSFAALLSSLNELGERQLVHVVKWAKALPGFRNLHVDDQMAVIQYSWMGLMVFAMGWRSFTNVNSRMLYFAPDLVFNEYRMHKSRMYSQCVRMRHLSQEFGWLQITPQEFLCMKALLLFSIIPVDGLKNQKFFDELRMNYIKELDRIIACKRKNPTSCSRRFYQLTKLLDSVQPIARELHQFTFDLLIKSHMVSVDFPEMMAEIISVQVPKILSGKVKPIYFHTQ

Androgen receptor = molecular target: T2, Androgen receptor (Rattus norvegicus, UniProt P15207); assay: as §1; assay type: cell-based
T2 sequence (P15207 whole entry): T1 sequence (whole entry)

[17] = Half life in human liver microsomes at 3 uM preincubated with compound followed by NADPH addition by LC-MS/MS analysis
[18] = Apparent permeability from apical to basolateral side in human Caco2 cells at 10 uM incubated for 120 mins by LC-MS/MS analysis; settings: Caco-2
[19] = Apparent permeability from basolateral to apical side in human Caco2 cells at 10 uM incubated for 120 mins by LC-MS/MS analysis; settings: Caco-2
[20] = Efflux ratio of apparent permeability from basolateral to apical side over apical to basolateral side in human Caco2 cells at 10 uM incubated for 120 mins by LC-MS/MS analysis; settings: Caco-2
HepG2 [21] = assay: Cytotoxicity against human HepG2 cells assessed as reduction in cell viability after 72 hrs by MTT assay; assay type: functional, cell-based; settings: HepG2, 72 h; for minimal effective concentration: read-out: MEC
[22] = molecular target: T1, Androgen receptor (Rattus norvegicus); assay: as §1, with “activation at 1 uM” for “activation”, “assay relative to control” for “assay”; assay type: cell-based
CWR22R [23] = assay: Potency index, ratio of (R)-bicalutamide IC50 to compound IC50 for human 22Rv1 cells; assay type: functional
DU-145 [24] = assay: Potency index, ratio of (R)-bicalutamide IC50 to compound IC50 for human DU145 cells; assay type: functional
LNCaP [25] = assay: Potency index, ratio of (R)-bicalutamide IC50 to compound IC50 for human LNCAP cells; assay type: functional
VCaP [26] = assay: Potency index, ratio of (R)-bicalutamide IC50 to compound IC50 for human VCaP cells; assay type: functional
[27] = Metabolic stability in human liver microsomes at 3 uM preincubated with compound followed by NADPH addition measured after 5 to 45 mins by LC-MS/MS analysis; assay type: ADME, Microsome

SMILES	IC50 (CWR22R [1]) [µM]	IC50 (DU-145 [2]) [µM]	IC50 (LNCaP [3]) [µM]	IC50 (VCaP [4]) [µM]	solubility [14]	solubility [15]	inhibition [16]	IC50 (Androgen receptor) [µM]	Papp A→B at 2 h, 10 µM [18] [×10⁻⁶ cm/s]	Papp B→A at 2 h, 10 µM [19] [×10⁻⁶ cm/s]	efflux ratio at 2 h, 10 µM [20]	AC50 (HepG2 [21]) [µM]	minimal effective concentration (HepG2 [21]) [µM]	further results
C[C@](O)(CS(=O)(=O)c1ccc(F)cc1)C(=O)Nc1ccc(C#N)c(C(F)(F)F)c1 [(R)-BICALUTAMIDE]	46.2 to 46.3	45.4	45.2	51.6	–	–	–	–	–	–	–	–	–	IC70 (CWR22R [1]): 58.7 µM; IC70 (DU-145 [2]): 56.6 µM; IC70 (LNCaP [3]): 57.7 µM; IC70 (VCaP [4]): 83.4 µM; IC50 (LNCaP [5]): 47 µM; IC70 (LNCaP [5]): 59.3 µM; IC50 (DU-145 [6]): 41.2 µM; IC70 (DU-145 [6]): 52.6 µM; IC50 (CWR22R [7]): 44.6 µM; IC70 (CWR22R [7]): 57.1 µM; IC50 (VCaP [8]): 39.8 µM; IC70 (VCaP [8]): 52.1 µM; cell viability reduction (HepG2 [9]): 77%; microsomal CLint at 3 µM (in vitro; liver microsomes): 6.48 µL/min/mg
CC(O)(CS(=O)(=O)c1ccc(C(F)(F)F)cc1)C(=O)Nc1ccc([N+](=O)[O-])c(C(F)(F)F)c1 (stereo not drawn)	18.7	24.7	17.9	31.5	Soluble	Soluble	–	–	–	–	–	–	–	Ratio IC50 (CWR22R [10]): <=2; Ratio IC50 (DU-145 [11]): <=2; Ratio IC50 (LNCaP [12]): <=2; Ratio IC50 (VCaP [13]): <=2
C[C@](O)(CSc1ccc(C(F)(F)F)cc1)C(=O)Nc1ccc(C#N)c(C(F)(F)F)c1	9.75	17.2	14.5	9.28	Soluble	Soluble	Dose-dependent effect	2.17	5.8	4.74	0.817	61.2	49.6	half-life at 3 µM ([17]; liver microsomes): 5.6 min; microsomal CLint at 3 µM (in vitro; liver microsomes): 248 µL/min/mg
C[C@](O)(CS(=O)(=O)c1ccc(OC(F)(F)F)cc1)C(=O)Nc1ccc(C#N)c(C(F)(F)F)c1	18.8	31.6	18.9	31.2	Soluble	Soluble	Dose-dependent effect	0.777	–	–	–	–	–	inhibition [22]: 53 to 69%
C[C@](O)(CS(=O)(=O)c1ccc(C(F)(F)F)cc1)C(=O)Nc1ccc(C#N)c(C(F)(F)F)c1	20.2	26.8	17.5	31.4	Soluble	Soluble	Dose-dependent effect	0.775	–	–	–	–	–	Ratio IC50 (CWR22R [10]): <=2; Ratio IC50 (DU-145 [11]): <=2; Ratio IC50 (LNCaP [12]): <=2; Ratio IC50 (VCaP [13]): <=2; Ratio IC50 (CWR22R [23]): 2; Ratio IC50 (DU-145 [24]): 2; Ratio IC50 (LNCaP [25]): 2; Ratio IC50 (VCaP [26]): 2
CC(O)(CS(=O)(=O)c1ccc(C(F)(F)F)cc1)C(=O)Nc1ccc(C#N)c(C(F)(F)F)c1 (stereo not drawn)	21.5	32.8	20.1	29.1	Soluble	Soluble	–	–	–	–	–	–	–	Ratio IC50 (CWR22R [10]): 2; Ratio IC50 (DU-145 [11]): 2; Ratio IC50 (LNCaP [12]): 2; Ratio IC50 (VCaP [13]): 2
CC(O)(COc1ccc(C#N)cc1C(F)(F)F)C(=O)Nc1ccc([N+](=O)[O-])c(C(F)(F)F)c1 (stereo not drawn)	5.55	7.65	5.69	8.38	–	–	Dose-dependent effect	0.0722	–	–	–	20.2	10.6	half-life at 3 µM ([17]; liver microsomes): 534 min; cell viability reduction (HepG2 [9]): 98%; microsomal CLint at 3 µM (in vitro; liver microsomes): 2.59 µL/min/mg
C[C@](O)(COc1ccc(C#N)cc1)C(=O)Nc1ccc(C#N)c(C(F)(F)F)c1 [ENOBOSARM]	24.8	44.6	–	24.5	–	–	–	0.0364	31.5	26.7	0.848	32.8	21.8	Stability [27]: Stable; cell viability reduction (HepG2 [9]): 79%
CC(O)(CSc1cccc(C(F)(F)F)c1)C(=O)Nc1ccc([N+](=O)[O-])c(C(F)(F)F)c1 (stereo not drawn)	5.07	8.73	6.44	8.64	Soluble	Soluble	Dose-dependent effect	0.625	5	4.27	0.853	26.1	13.2	half-life at 3 µM ([17]; liver microsomes): 6.87 min; microsomal CLint at 3 µM (in vitro; liver microsomes): 202 µL/min/mg
CC(O)(COc1ccc(C(F)(F)F)cc1)C(=O)Nc1ccc(C#N)c(C(F)(F)F)c1 (stereo not drawn)	6.91	16.3	6.45	9.65	Soluble	Soluble	–	–	5.09	4.8	0.943	23.9	11.3	Stability [27]: Stable
CC(O)(CSc1ccccc1C(F)(F)F)C(=O)Nc1ccc([N+](=O)[O-])c(C(F)(F)F)c1 (stereo not drawn)	4.6	7.57	4.78	4.45	Soluble	Soluble	Dose-dependent effect	0.28	3.44	2.9	0.843	2.73	1.71	half-life at 3 µM ([17]; microsomes): 3.39 min; cell viability reduction (HepG2 [9]): 98%; microsomal CLint at 3 µM (in vitro; microsomes): 409 µL/min/mg
CC(O)(CS(=O)(=O)c1cccc(C(F)(F)F)c1)C(=O)Nc1ccc([N+](=O)[O-])c(C(F)(F)F)c1 (stereo not drawn)	16.1	31.6	16.2	30.8	Soluble	Soluble	Dose-dependent effect	1.07	–	–	–	–	–	Ratio IC50 (CWR22R [10]): <=2; Ratio IC50 (DU-145 [11]): <=2; Ratio IC50 (LNCaP [12]): <=2; Ratio IC50 (VCaP [13]): <=2
CC(O)(CS(=O)(=O)c1ccccc1C(F)(F)F)C(=O)Nc1ccc([N+](=O)[O-])c(C(F)(F)F)c1 (stereo not drawn)	18.6	37.5	25.7	27.6	Soluble	Soluble	Dose-dependent effect	0.811	13.3	17.2	1.29	32.6	22.7	Stability [27]: Stable
CC(O)(COc1ccc(C#N)c(F)c1)C(=O)Nc1ccc([N+](=O)[O-])c(C(F)(F)F)c1 (stereo not drawn)	11.8	16.4	7.71	12.4	Soluble	Soluble	Dose-dependent effect	0.0492	–	–	–	–	–	inhibition [22]: 65%
